Results taken from US10654852B2, “Antibiotics and methods of using same” (THE BROAD INSTITUTE, INC., priority 2016, dated 2020).
In brackets after ≈: the same amount, converted by molar mass. Where two headings read alike, the source gives them in different places.

Tests used:
[1] = test system: Citrobacter werkmanii Brenner ATCC-51114; assay: MIC (50% NHS); assay type: cell-based; conditions: ATCC51114; Citrobacter werkmanii Brenner ATCC-51114, 50% NHS
[2] = test system: Escherichia coli ATCC-25922; assay: MIC in the presence of normal human serum (50% NHS); assay type: cell-based; conditions: ATCC25922
From the text: As used herein, the term “MIC” refers to minimum inhibitory concentrations. Minimum inhibitory concentrations may be determined by broth microdilution according to the Clinical and Laboratory Standards Institute guidelines (see, e.g., […]-A8. Methods for dilution antimicrobial susceptibility tests for bacteria that grow aerobically: approved standard, 8th Ed.; […] One example for measuring minimum inhibitory concentrations may be found in Reck et al., 2012, J. Med. Chem. 55:6916-6933, the disclosure of which is incorporated by reference. Inoculants may be incubated on blood agar plates for 18 to 24 hours. Incubation may occur at a temperature from about 35° C. to about 37° C. […] In serum supplemented experiments, the testing medium (e.g., DMSO solution) and human serum may be mixed. The ratio of testing medium to human serum may be 1:1 (vol:vol). Plates may be read by spectrophotometry at 620 nm. Unless indicated otherwise, all inhibitory concentrations recited in the specification relate to MICs. The MIC tests were based on broth microdilution method in CLSI-M7. […] Solutions of varying concentrations of DMSO were prepared in wells of a v-bottom 96-well plate (Axygen-WIPP02280). A multi-pipette was used to perform serial dilutions as necessary. From well to well, the drug concentrations were 6.4, 3.2, 1.6, 0.8, 0.4, 0.2, 0.1, 0.05, 0.025, 0.0125, 0.00625 and 0 mg/ml in DMSO. For extremely potent antibiotic, the starting concentrations were adjusted accordingly. This was the drug mother plate. Daughter plates were prepared by placing 98 μl of a testing medium into each well of a u-bottom 96-well plate (Costar 3788). An aliquot of each 2 μl solution from each well of the mother plate was then transferred into the corresponding wells of the daughter plate using a multi-pipette work station (CyBi®-SELMA). Testing media were selected based on CLSI-M7, M11 and […]. Cation adjusted Mueller Hinton Broth (CA-MHB-212322) was the testing medium for majority of bacterial species. Brucella medium (BD-211088) supplemented with 5% LHB, 0.5% hemin and 0.1% vitamin K1 (Sigma-95271) was the testing medium for anaerobic bacteria. One day prior to the day of MIC test, bacterial strains were streaked out from -80° C. glycerol stock onto Trypticase Soy Agar (TSA) plates (Brucella blood agar for anaerobic bacteria) and incubated at 37° C. for 20 hours (in anaerobic condition for anaerobic bacteria, e.g., 80% N2, 10% H2 and 10% CO2). Single colonies of bacteria were picked by using an inoculation loop (Greiner-731175) and suspended into 5 ml sterile saline. The turbidity of the suspension was adjusted to 0.10 (Siemens MicroS can turbidity meter), which implies a concentration of colony forming units (“CFU”) of approximately 1.0×10^8 CFU/ml. The bacterial suspension was diluted 100× in testing media. For MIC experiments with NHS, testing medium and human serum (Equitech Bio Inc. BRH-949908) were mixed in the ratio of 1:1. This was used for inoculation of the daughter plates. An aliquot of 100 μl of the bacterial suspension was inoculated into each well of the daughter plates using a multi-pipette. […] The plates were incubated in ambient atmosphere and at 37° C. in an incubator for 20 hours (for anaerobic bacteria in an anaerobic condition as described above for 48 hours). The MIC values were determined and based on the standards of CLSI methods M7-A7, broth microdilution method. […] Test compounds were compared to control antibiotics Penicillin G (Sigma-13752) and levofloxacin (Sigma-28266). […] Additionally, the MIC's of another gyrase inhibitor (“GSK”) with a structure different from the inventive compounds and the antibacterial levofloxin was measured. MIC are given in μg/mL.

[3] = test system: Proteus mirabilis ATCC-29906; assay: MIC (50% NHS); assay type: cell-based; conditions: ATCC29906; Proteus mirabilis ATCC-29906, 50% NHS
[4] = Microsomal stability assay, mouse CLint; assay type: in vitro ADME; design: unit not given here; conditions: mouse liver microsomes, 1 μM, 0.5 mg/ml microsomal protein
Protocol: (§1) The activity profiles of compounds 17, 23, and 24 were assessed by various in vitro measurements. The minimum inhibitory concentration (MIC), MIC in the presence of normal human serum (NHS), microsome CLint, the % of free compounds following a plasma protein biding (PPB) assay, and the concentration of drug where the human-ether-à-go-go-related gene (hERG gene) channel block is halved (IC50(hERG)) were measured using standard in vitro protocols for compounds 17, 23, and 24. Unless otherwise indicated, measurements (e.g., microsomal clearance) were performed using a standard microsomal stability assay using LC/MS/MS techniques.
Test compounds were incubated at 37° C. with liver microsomes pooled from multiple donors at 1 μM in the presence of a NADPH regenerating system at 0.5 mg/ml microsomal protein. Positive of testosterone (a 3A4 substrate), propafenone (a 2D6 substrate), and diclofenac (a 2c9 substrate) were similarly incubated with microsomes in the presence of a NADPH regenerating system. Samples are removed at 0, 5, 10, 20, 30, and 60 minutes of incubation and immediately mixed with cold acetonitrile containing an internal standard (IS). Samples are then analyzed by LC/MS/MS to determine the disappearance of the test compound and are assessed based on the peak area ratios of analyte/IS (no standard curve).

[5] = test system: Klebsiella pneumonia ATCC-43816; assay: MIC (50% NHS); assay type: cell-based; conditions: Klebsiella pneumoniae, ATCC43816; Klebsiella pneumonia ATCC-43816, 50% NHS
[6] = target: T1, hERG Potassium Ion Channel (Homo sapiens, UniProt Q12809); assay: hERG channel block, automated planar clamp (QPatch), CHO cell line; assay type: cell-based; conditions: hERG channel in stable CHO cell line
T1 construct: expressed in transfected cells
Protocol: as §1
Blockade of the cardiac ion channel coded by the hERG gene can lead to cardiac arrhythmia. […] To determine the viability of inventive compounds as pharmacological agents that would not affect the hERG channel blockade, a standard automated planar clamp method was employed to determine the IC50 for various test compounds on their inhibition of the channel. An electrophysiological assay was prepared to measure the electric current passing through the hERG channel expressed in a stable CHO cell line by applying the planar clamp method. This assay was performed using the automated QPatch platform (Sophion, Denmark) which allows fast and accurate electrophysiological characterization of the hERG ion channel and the determination of IC50 values for the test compounds.

[7] = test system: Escherichia coli CCUG-59353; assay: MIC (50% NHS); assay type: cell-based; conditions: CCUG59353; Escherichia coli CCUG-59353, 50% NHS
[8] = test system: Staphylococcus aureus ATCC-29213; assay: MIC (50% NHS); assay type: cell-based; conditions: ATCC29213; Staphylococcus aureus ATCC-29213, 50% NHS
[9] = Escherichia coli ATC-25922, 50% normal human serum, Table 5, read-out: MIC (50% NHS)
[10] = Escherichia coli ATCC-25922, 50% NHS, Table 6, read-out: MIC

T1 sequence (Q12809 whole entry): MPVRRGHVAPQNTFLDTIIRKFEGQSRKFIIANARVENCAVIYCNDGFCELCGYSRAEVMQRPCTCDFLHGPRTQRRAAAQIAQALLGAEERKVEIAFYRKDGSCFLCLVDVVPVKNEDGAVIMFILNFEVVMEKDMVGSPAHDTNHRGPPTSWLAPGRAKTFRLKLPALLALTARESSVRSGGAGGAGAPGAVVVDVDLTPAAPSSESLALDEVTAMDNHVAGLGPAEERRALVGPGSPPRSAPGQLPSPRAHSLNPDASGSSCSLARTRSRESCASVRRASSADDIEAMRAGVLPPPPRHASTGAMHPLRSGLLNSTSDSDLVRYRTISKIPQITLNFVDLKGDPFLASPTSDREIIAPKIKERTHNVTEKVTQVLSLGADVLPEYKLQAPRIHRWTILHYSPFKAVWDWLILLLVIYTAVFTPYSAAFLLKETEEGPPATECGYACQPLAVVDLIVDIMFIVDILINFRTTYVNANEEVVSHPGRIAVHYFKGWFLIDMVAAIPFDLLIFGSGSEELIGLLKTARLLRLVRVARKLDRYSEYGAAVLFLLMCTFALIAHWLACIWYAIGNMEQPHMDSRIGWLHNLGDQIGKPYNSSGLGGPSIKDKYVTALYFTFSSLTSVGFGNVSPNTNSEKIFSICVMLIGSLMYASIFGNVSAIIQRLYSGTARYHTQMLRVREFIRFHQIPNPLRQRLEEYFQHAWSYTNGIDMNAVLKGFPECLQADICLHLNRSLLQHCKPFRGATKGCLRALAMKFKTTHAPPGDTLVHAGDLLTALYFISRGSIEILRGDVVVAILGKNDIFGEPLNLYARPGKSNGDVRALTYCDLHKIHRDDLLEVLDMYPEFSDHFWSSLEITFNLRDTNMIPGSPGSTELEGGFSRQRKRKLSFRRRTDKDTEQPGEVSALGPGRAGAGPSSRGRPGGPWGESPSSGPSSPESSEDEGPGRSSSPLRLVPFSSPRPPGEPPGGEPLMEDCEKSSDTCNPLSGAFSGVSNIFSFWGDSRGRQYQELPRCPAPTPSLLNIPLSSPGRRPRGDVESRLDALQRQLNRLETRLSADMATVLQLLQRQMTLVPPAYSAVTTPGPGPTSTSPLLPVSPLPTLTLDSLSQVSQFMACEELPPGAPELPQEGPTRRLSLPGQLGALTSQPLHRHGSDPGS

Compound: CN1CC2CN(C(=O)Nc3cc(F)cc(F)c3)CC(C1)C2(O)c1ccc(-c2ccc(CN)cc2C#N)cc1 [Compound 23, (1R,5S,9r)-9-(4′-(aminomethyl)-2′-cyano-[1,1′-biphenyl]-4-yl)-N-(3,5-difluorophenyl)-9-hydroxy-7-methyl-3,7-diazabicyclo[3.3.1]nonane-3-carboxamide]
- MIC [1]: 4 µg/mL (≈ 7.73 µM)
- MIC [2, 9]: 0.5 µg/mL
- MIC [2, 10]: 0.5 µg/mL
- MIC [3]: 4 µg/mL (≈ 7.73 µM)
- mouse CLint [4]: 105
- MIC [5]: 2 µg/mL (≈ 3.86 µM)
- IC50 [6]: > 30 µM
- MIC [7]: 2 µg/mL (≈ 3.86 µM)
- MIC [8]: 0.13 µg/mL (≈ 0.251 µM)

Compound: CN1CC2CN(C(=O)Nc3cc(F)cc(F)c3)CC(C1)C2(O)c1ccc(-c2ccc(CN)cc2C#N)cn1 [Compound 24, (1R,5S,9r)-9-(5-(4-(aminomethyl)-2-cyanophenyl)pyridin-2-yl)-N-(3,5-difluorophenyl)-9-hydroxy-7-methyl-3,7-diazabicyclo[3.3.1]nonane-3-carboxamide]
- MIC [1]: 4 µg/mL (≈ 7.71 µM)
- MIC [2, 9]: 0.25 µg/mL
- MIC [2, 10]: 1 µg/mL
- MIC [3]: 32 µg/mL (≈ 61.7 µM)
- mouse CLint [4]: >145
- MIC [5]: 4 µg/mL (≈ 7.71 µM)
- IC50 [6]: > 30 µM
- MIC [7]: 4 µg/mL (≈ 7.71 µM)
- MIC [8]: 0.25 µg/mL (≈ 0.482 µM)

Compound: CNCc1ccc(-c2ccc(C3(O)C4CN(C)CC3CN(C(=O)Nc3cc(F)cc(F)c3)C4)nc2)c(C#N)c1 [Compound 17, (1R,5S,9r)-9-(5-(2-cyano-4-((methylamino)methyl)phenyl)pyridin-2-yl)-N-(3,5-difluorophenyl)-9-hydroxy-7-methyl-3,7-diazabicyclo[3.3.1]nonane-3-carboxamide]
- MIC [1]: 3.56 µg/mL (≈ 6.68 µM)
- MIC [2, 9]: 0.5 µg/mL
- MIC [2, 10]: 0.22 µg/mL
- MIC [3]: 7.12 µg/mL (≈ 13.4 µM)
- mouse CLint [4]: >145
- MIC [5]: 1.78 µg/mL (≈ 3.34 µM)
- IC50 [6]: > 30 µM
- MIC [7]: 1.78 µg/mL (≈ 3.34 µM)
- MIC [8]: ≤ 0.11 µg/mL
